Columns and labels:
[1] = system: rumen flora; assay: In vitro rumen fluid test, volatile fatty acid production; assay type: cell-based, steer; conditions: 1 ppm in rumen fluid, 16 hours, 38° C.
Excerpt: As discussed hereinabove, efficiency of carbohydrate utilization in ruminants is increased by treatments which stimulate the animal's rumen flora to produce propionate compounds rather than acetate or butyrate compounds. The efficiency of feed use can be monitored by observing the production and concentration of propionate compounds in the rumen, using the following methods:
Rumen fluid is obtained from a steer with a surgically-installed fistula opening into the rumen. The steer is maintained on a high-grain ration. A sample of rumen fluid is strained through four layers of cheesecloth, and the filtrate is collected. The particulate matter retained by the cheesecloth is resuspended in enough physiological buffer to return it to the original volume of the rumen fluid, and this suspension is strained again. The buffer used has the following composition:
The two filtrates are combined and allowed to stand until particulate matter separates to the top. The clear layer is separated, diluted with the same buffer (1:1) and then adjusted to between pH 6.8 to 7.0.
The diluted rumen fluid (10 ml) is placed in a 25-ml flask with 40 mg of the above-described feed, an additional 1 mg of soybean protein, and the compound to be tested. Four replicate flasks are used per treatment. Two sets of four control flasks each are also employed. A zero-time control and an incubated 16-hour control are used. All test flasks are incubated for 16 hours at 38° C. […] The samples are allowed to settle, and the supernatants are analyzed by gas chromatography for propionate, acetate, and butyrate compounds.

[2] = system: Staphylococcus aureus (H-Heatley) NRRL B-314; assay: Turbidometric assay (Autoturb), relative gram-positive activity; assay type: cell-based; conditions: relative to A-28086 factor A standard = 1; nutrient broth pH 7, 4 hours, 37° C.
Description: The C2 -C6 -acyl ester derivatives of A-28086 factor A also have antibacterial and antifungal activity. In one aspect, these derivatives have increased gram-positive activity. The relative gram-positive activities of certain of these derivatives were compared with the activity of factor A. The compounds were tested by turbidometric assay on a semiautomated system (Autoturb microbiological assay system, Elanco) described by N. R. Kuzel and F. W. Kavanaugh in J. Pharmaceut. Sci. 60 (5), 764 and 767 (1971). In testing the A-28086 antibiotics, the following test parameters were used: Staphylococcus aureus (H-Heatley) NRRL B-314 in a nutrient broth medium (pH 7), incubated for 4 hours at 37° C. Test samples and the standard were dissolved in methanol-water (10:90). The standard, A-28086 factor A, was presented to the Autoturb carrousel at concentrations of 2, 3, 4, and 5 mcg/ml. Test compounds were diluted to contain approximately 3 or 4 mcg of activity per ml, as presented to the carrousel. The relative activities of test compounds, as compared to that of the standard, are given below: […]

[3] = Electrometric titration in 80% aqueous dimethylformamide (pKa)
[4] = system: Eimeria tenella; assay: Anticoccidial activity in chicks against Eimeria tenella; assay type: in vivo, Eimeria tenella; chickens; conditions: for Percent Weight Gain: normal controls 100
[5] = Solubility in water and organic solvents; assay type: physicochemical; conditions: nonpolar organic solvents such as hexane
[6] = system: E. necatrix and E. tenella; assay: Anticoccidial activity in chicks against mixed Eimeria species; assay type: in vivo, E. necatrix and E. tenella; broiler cockerels; conditions: 0.005% in feed
Excerpt: (§1) ^1 Four replicates, 5 broiler cockerels each.

[7] = system: ruminal propionic acid; assay: In vivo ruminal propionic acid concentration in fistulated steers; conditions: 100 mg/day, mean of five analyses in 14 days
Description: The test reported in Table XII was conducted with mature fistulated steers weighing about 1,000 lbs. each. Two steers were fed a normal diet, and four steers in each treatment group were fed an identical diet to which A-28086 factor A had been added. To each aliquot (100 ml) of rumen fluid taken, 10 percent metaphosphoric acid (100 ml) was added. The samples were allowed to settle, and the supernatants were analyzed by gas chromatographic methods to determine propionic acid concentrations.
The results in Table XII are the mean percent increases in ruminal propionic acid concentration, averaged over five analyses in a 14-day treatment period. Controls had approximately 20 molar percent propionic acid.

[8] = system: E. tenella, E. necatrix, E. maxima, E. brunetti, E. acervulina, and E. mivati; assay: Anticoccidial activity in chicks against mixed Eimeria species; assay type: in vivo; conditions: 0.01% in feed
Excerpt: as §1

[9] = In vivo feed-utilization efficiency in sheep; conditions: 56 days
[10] = General microbiological (antibacterial/antifungal) activity; assay type: cell-based; conditions: in words

## CCCCCC(=O)OC1C=CC2(OC(C(CC)C(=O)C(C)C(O)C(C)C3OC(C(CC)C(=O)O)C(C)CC3C)C(C)CC2C)OC12CCC(C)(C1CCC(O)(CC)C(C)O1)O2 (stereo not shown) [A-28086 factor A n-caproyl ester derivative]
[1]
  Ratio of Treated to Control, Molar % acetate: 0.86
  Ratio of Treated to Control, Molar % butyrate: 0.97
  Ratio of Treated to Control, Total VFA mM/l: 0.99
[2]
  Relative G^+ Activity: 20

## CCC(=O)OC1C=CC2(OC(C(CC)C(=O)C(C)C(O)C(C)C3OC(C(CC)C(=O)O)C(C)CC3C)C(C)CC2C)OC12CCC(C)(C1CCC(O)(CC)C(C)O1)O2 (stereo not shown) [A-28086 factor A propionyl ester derivative]
[1]
  Ratio of Treated to Control, Molar % acetate: 0.90
  Ratio of Treated to Control, Molar % butyrate: 0.68
[2]
  Relative G^+ Activity: 7

## CCC(C(=O)O)C1OC(C(C)C(O)C(C)C(=O)C(CC)C2OC3(C=CC(OC(C)=O)C4(CCC(C)(C5CCC(O)(CC)C(C)O5)O4)O3)C(C)CC2C)C(C)CC1C (stereo not shown) [A-28086 factor A acetyl ester derivative, A-28086 factor A acetyl ester]
[1]
  Ratio of Treated to Control, Molar % acetate: 0.79
  Ratio of Treated to Control, Molar % butyrate: 0.76
[2]
  Relative G^+ Activity: 2.5
[3]
  pKa value of titratable group: 8.5

## CCCCC(=O)OC1C=CC2(OC(C(CC)C(=O)C(C)C(O)C(C)C3OC(C(CC)C(=O)O)C(C)CC3C)C(C)CC2C)OC12CCC(C)(C1CCC(O)(CC)C(C)O1)O2 (stereo not shown) [A-28086 factor A n-valeryl ester derivative]
[1]
  Ratio of Treated to Control, Molar % acetate: 0.92
  Ratio of Treated to Control, Molar % butyrate: 0.79
[2]
  Relative G^+ Activity: 14

## CCC(C(=O)O)C1OC(C(C)C(O)C(C)C(=O)C(CC)C2OC3(C=CC(O)C4(CCC(C)(C5CCC(O)(CC)C(C)O5)O4)O3)C(C)CC2C)C(C)CC1C (stereo not shown) [A-28086 factor A]
[4]; 0.0025% in feed, second group
  Percent Reduction in Lesion Score: 0%
  Percent Weight Gain: 87%
[4]; 0.0025% in feed, second group (20 chickens)
  Percent Mortality: 10%
[4]; 0.005% in feed, second group
  Average Lesion Score: 2.8
  Percent Reduction in Lesion Score: 27%
  Percent Weight Gain: 91%
[4]; 0.005% in feed, second group (20 chickens)
  Percent Mortality: 0%
[4]; 0.01% in feed, first group
  Average Lesion Score: 0.2
  Percent Reduction in Lesion Score: 95%
  Percent Weight Gain: 94%
[4]; 0.01% in feed, first group (10 chickens)
  Percent Mortality: 0%
[4]; 0.01% in feed, second group
  Average Lesion Score: 0
  Percent Reduction in Lesion Score: 100%
  Percent Weight Gain: 96%
[4]; 0.01% in feed, second group (20 chickens)
  Percent Mortality: 0%
[4]; 0.02% in feed, first group
  Average Lesion Score: 0.2
  Percent Reduction in Lesion Score: 95%
  Percent Weight Gain: 82%
[4]; 0.02% in feed, first group (10 chickens)
  Percent Mortality: 0%
[4]; 0.02% in feed, second group
  Average Lesion Score: 0
  Percent Reduction in Lesion Score: 100%
  Percent Weight Gain: 84%
[4]; 0.02% in feed, second group (20 chickens)
  Percent Mortality: 0%
[4]; 0.04% in feed, first group
  Average Lesion Score: 0
  Percent Reduction in Lesion Score: 100%
  Percent Weight Gain: 50%
[4]; 0.04% in feed, first group (10 chickens)
  Percent Mortality: 0%
[5]
  solubility in nonpolar organic solvents: only slightly soluble
[6]
  Cecal Lesions Percent Reducton: 50%
[7]
  Percent Increase Over Control in ruminal propionic acid concentration: 54.0%
[1]
  Ratio of Treated to Control, Molar % acetate: 0.94
  Ratio of Treated to Control, Molar % butyrate: 0.87
[2]
  Relative G^+ Activity: 1
[3]
  pKa value of titratable group: 7.9
[8]
  Cecal Lesions Percent Reducton: 73%
[9]; 9 g per ton of feed
  Feed/Grain: 7.40
[9]; 18 g per ton of feed
  Feed/Grain: 8.31

## CCCC(=O)OC1C=CC2(OC(C(CC)C(=O)C(C)C(O)C(C)C3OC(C(CC)C(=O)O)C(C)CC3C)C(C)CC2C)OC12CCC(C)(C1CCC(O)(CC)C(C)O1)O2 (stereo not shown) [A-28086 factor A n-butyryl ester derivative]
[1]
  Ratio of Treated to Control, Molar % acetate: 0.91
  Ratio of Treated to Control, Molar % butyrate: 0.81
[2]
  Relative G^+ Activity: 8

## CCC(C(=O)OC)C1OC(C(C)C(O)C(C)C(=O)C(CC)C2OC3(C=CC(O)C4(CCC(C)(C5CCC(O)(CC)C(C)O5)O4)O3)C(C)CC2C)C(C)CC1C (stereo not shown) [A-28086-I]
[10]
  microbiological activity: not microbiologically active

From US4038384A, “Antibiotic A-28086 and process for production thereof” (Eli Lilly and Company, priority 1975, dated 1977)
